According to US10301304B2, “Selective inhibitor of phosphatidylinositol 3-kinase-gamma” (VERTEX PHARMACEUTICALS INCORPORATED, priority 2013, dated 2019):
Marks after values point to notes of the source that are not given here.

Experiments:
CYP1A2 [1] = molecular target: CYP1A2 (Homo sapiens, UniProt P05177); assay: Metabolism by Recombinant CYP Enzymes; assay type: in vitro ADME; details: 1 μM, recombinant CYP1A2, NADPH
Procedure: (§1) Microsomes that contained recombinant CYP enzymes (CYP1A2, 2B6, 2C8, 2C9, 2C19, 2D6, 2E1 and 3A4) were used to determine which CYP catalyzes the oxidation of Compound 1. Accordingly, Compound 1 (1 μM) was incubated with individual recombinant CYPs in the presence of the cofactor NADPH. The percent parent drug remaining at the end of the incubation period was determined by LC-MS/MS and compared to that present at the beginning.

CYP2C9 = CYP2C9 (Homo sapiens, UniProt P11712); assay: Metabolism by Recombinant CYP Enzymes; assay type: in vitro ADME; details: 1 μM, recombinant CYP2C9, NADPH
Procedure: as §1

CYP2E1 = CYP2E1 (Homo sapiens, UniProt P05181); assay: Metabolism by Recombinant CYP Enzymes; assay type: in vitro ADME; details: 1 μM, recombinant CYP2E1, NADPH
Procedure: as §1

CYP3A4 = CYP3A4 (Homo sapiens, UniProt P08684); assay: Metabolism by Recombinant CYP Enzymes; assay type: in vitro ADME; details: 1 μM
Procedure: as §1

CYP1A2 [2] = assay: CYP1A2 Induction in Human Hepatocytes; assay type: in vitro ADME
Procedure: CYP activity was determined by monitoring metabolite formation of specific CYP probe substrates (phenacetin for CYP1A2 and testosterone for CYP3A4) using LC-MS/MS. CYP messenger ribonucleic acid (mRNA) was analyzed by RT-PCR to confirm CYP induction potential.

P-gp (MDR1) = molecular target: T1, P-gp (MDR1) (Homo sapiens, UniProt P08183); assay: Efflux in MDCK-MDR1 cell line; assay type: in vitro ADME; details: human; for recovery at 1 h, 1 μM: MDCK-MDR1, MDCK-MDR1, 1 μM
T1 construct: expressed in transfected cells; host or cells: MDCK (Madin-Darby canine kidney) cells, MDCK-MDR1
Procedure: (§2) The permeability of Compound 1 was evaluated using both Caco-2 and MadinDarby canine kidney (MDCK) wild-type cell lines. Cells were exposed to drug in buffer on the apical side (measuring permeability in the A-to-B direction) or basolateral side (measuring permeability in the B-to-A direction) and incubated at 37° C. for one hour. Permeability was high in the A-to-B direction in both the MDCK and Caco-2 cell lines (33 and 18×10^−6 cm/sec, respectively).
(§3) An assessment of whether Compound 1 is a substrate of efflux transporters was conducted by using the MDCK cell line that is overexpressed with human P-gp (MDR).

human P-gp (MDR) = molecular target: T2, human P-gp (MDR) (Homo sapiens, UniProt P08183); assay: Efflux in MDCK-MDR1 cell line; assay type: in vitro ADME; details: MDCK overexpressing human P-gp, in words
T2 construct: expressed in transfected cells; host or cells: MDCK (Madin-Darby canine kidney) cells, MDCK-MDR1
Procedure: as §2, §3

[3] = Oral pharmacokinetics / bioavailability; assay type: in vivo; details: single oral; for AUC / AUC(0-inf) / Cmax / MRT / Tmax / half-life: in vivo
Description: The bioavailability in monkey (greater than 100%) may be explained by the tenfold difference between the IV and oral doses. Compound 1 was rapidly absorbed in all species, with maximum systemic concentration observed within approximately one to three hours of dosing.

CD40 induced colitis = CD40 induced colitis (IBD) model, body weight loss; assay type: in vivo, mouse
Procedure: The PI3Kγ inhibitor, Compound 1, was tested in a CD40 induced colitis model to determine its effect on disease course. The CD40 model of IBD is induced by injecting an anti-CD40 monoclonal antibody (agonist, i.e., activating antibody versus neutralizing antibody) into T and B cell deficient mice (Rag 1−/− mice) to induce both systemic and intestinal inflammation that leads to colitis and wasting disease via the innate immune pathway. (See, e.g., Immunity 25, 309-318, August 2006). Briefly, Rag1 knock-out mice were injected IP with the anti-CD40 monoclonal antibody FGK45. Starting on Day 0, mice were treated with PBS, vehicle or Compound 1 at 5 mg/kg b.i.d. or 10 mg/kg b.i.d. Compound 1 was administered IP for 7 days on a 10/14-hour b.i.d. dosing regimen. Compound 1 was formulated in 5% NMP/15% PEG-400/80% in a 0.5% HPMC-E50 solution in water. At study termination, serum and colon samples were collected at 2 hours following the last dose for drug concentration analysis. Body weights were measured daily during the study. Compound 1 concentrations were analyzed in the plasma samples collected 2 hours following the final dose at study termination. Concentrations were determined using a high performance liquid chromatography/tandem mass spectrometry (HPLC/MS/MS) method.

[4] = Dog, 3 mg/kg nominal, spray-dried dispersion
[5] = Monkey, 5 mg/kg nominal, spray-dried dispersion
[6] = Mouse, 1 mg/kg nominal, 0.2% MC/1% SLS

T1 sequence (P08183 whole entry): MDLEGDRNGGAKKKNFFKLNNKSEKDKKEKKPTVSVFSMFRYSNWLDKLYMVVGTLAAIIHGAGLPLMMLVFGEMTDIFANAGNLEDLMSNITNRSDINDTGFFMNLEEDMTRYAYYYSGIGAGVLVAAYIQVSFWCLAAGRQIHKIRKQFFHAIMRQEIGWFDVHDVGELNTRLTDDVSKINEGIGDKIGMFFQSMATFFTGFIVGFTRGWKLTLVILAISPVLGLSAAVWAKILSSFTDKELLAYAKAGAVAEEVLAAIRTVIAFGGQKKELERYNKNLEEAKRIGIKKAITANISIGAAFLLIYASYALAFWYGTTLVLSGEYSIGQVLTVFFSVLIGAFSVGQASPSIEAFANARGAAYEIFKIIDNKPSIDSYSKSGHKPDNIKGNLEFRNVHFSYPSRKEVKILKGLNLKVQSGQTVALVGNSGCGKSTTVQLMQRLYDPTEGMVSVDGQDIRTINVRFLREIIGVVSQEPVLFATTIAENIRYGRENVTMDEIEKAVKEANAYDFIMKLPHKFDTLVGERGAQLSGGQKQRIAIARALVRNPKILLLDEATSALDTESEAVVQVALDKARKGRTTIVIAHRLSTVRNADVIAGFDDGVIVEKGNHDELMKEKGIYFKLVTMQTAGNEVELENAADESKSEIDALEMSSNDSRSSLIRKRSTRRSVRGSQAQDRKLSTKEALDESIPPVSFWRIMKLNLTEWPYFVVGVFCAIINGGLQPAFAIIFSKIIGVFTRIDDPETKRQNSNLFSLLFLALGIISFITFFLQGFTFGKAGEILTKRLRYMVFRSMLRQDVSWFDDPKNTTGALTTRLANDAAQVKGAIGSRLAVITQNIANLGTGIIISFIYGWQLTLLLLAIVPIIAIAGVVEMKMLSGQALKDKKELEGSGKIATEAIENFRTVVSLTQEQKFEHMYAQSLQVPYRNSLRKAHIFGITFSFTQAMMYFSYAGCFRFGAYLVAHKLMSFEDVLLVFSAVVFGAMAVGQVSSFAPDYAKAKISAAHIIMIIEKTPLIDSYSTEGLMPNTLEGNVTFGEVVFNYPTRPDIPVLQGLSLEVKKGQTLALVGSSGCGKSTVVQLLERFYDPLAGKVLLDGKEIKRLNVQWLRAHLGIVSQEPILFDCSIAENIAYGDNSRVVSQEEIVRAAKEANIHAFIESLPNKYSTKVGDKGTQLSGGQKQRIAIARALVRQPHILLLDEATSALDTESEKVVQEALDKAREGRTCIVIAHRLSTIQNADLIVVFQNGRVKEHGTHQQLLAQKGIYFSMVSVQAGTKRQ
Chain of CYP3A4 (P08684 whole entry): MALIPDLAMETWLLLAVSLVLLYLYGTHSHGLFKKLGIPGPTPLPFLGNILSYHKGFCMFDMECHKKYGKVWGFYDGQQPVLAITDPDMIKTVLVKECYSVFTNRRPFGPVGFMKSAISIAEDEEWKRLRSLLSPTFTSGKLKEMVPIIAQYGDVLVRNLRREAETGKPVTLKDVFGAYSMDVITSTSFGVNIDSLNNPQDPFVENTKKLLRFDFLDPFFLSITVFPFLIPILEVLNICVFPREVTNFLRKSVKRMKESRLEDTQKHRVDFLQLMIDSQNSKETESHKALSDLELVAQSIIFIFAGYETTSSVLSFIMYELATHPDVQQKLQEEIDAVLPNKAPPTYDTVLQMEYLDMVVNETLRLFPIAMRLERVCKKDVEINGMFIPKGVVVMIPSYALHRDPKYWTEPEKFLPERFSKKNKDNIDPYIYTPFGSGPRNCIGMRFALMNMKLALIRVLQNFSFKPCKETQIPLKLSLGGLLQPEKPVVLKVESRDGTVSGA
Chain of CYP2C9 (P11712 whole entry): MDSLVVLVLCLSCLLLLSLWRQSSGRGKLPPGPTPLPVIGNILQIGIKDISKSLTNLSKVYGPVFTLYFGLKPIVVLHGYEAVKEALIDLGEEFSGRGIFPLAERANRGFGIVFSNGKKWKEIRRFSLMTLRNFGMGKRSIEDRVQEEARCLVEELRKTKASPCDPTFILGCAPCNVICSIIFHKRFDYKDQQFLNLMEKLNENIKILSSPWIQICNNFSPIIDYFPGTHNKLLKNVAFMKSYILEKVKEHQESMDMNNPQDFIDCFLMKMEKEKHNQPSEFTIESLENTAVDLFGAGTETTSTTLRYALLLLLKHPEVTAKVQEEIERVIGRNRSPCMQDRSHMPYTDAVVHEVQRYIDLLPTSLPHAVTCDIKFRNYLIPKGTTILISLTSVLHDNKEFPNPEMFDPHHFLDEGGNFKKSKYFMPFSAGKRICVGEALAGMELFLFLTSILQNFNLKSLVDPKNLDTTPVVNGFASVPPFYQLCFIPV
Chain of CYP1A2 (Homo sapiens, UniProt P05177) (P05177 whole entry): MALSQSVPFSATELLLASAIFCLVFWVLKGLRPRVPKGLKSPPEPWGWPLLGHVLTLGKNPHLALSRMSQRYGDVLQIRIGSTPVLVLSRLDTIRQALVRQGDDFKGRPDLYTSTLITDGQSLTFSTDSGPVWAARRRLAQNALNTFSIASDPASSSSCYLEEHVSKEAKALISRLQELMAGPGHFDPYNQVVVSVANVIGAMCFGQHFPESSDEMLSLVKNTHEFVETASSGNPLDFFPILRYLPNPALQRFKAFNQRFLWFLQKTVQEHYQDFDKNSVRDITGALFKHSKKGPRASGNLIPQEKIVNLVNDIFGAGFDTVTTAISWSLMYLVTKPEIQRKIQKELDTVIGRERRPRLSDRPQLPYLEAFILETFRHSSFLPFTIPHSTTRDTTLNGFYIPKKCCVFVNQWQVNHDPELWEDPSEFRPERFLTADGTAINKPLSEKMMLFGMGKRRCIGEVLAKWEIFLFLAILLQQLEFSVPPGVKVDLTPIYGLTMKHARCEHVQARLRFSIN
T2 sequence (P08183 whole entry): as the sequence (P08183 whole entry) above
Chain of CYP2E1 (P05181 whole entry): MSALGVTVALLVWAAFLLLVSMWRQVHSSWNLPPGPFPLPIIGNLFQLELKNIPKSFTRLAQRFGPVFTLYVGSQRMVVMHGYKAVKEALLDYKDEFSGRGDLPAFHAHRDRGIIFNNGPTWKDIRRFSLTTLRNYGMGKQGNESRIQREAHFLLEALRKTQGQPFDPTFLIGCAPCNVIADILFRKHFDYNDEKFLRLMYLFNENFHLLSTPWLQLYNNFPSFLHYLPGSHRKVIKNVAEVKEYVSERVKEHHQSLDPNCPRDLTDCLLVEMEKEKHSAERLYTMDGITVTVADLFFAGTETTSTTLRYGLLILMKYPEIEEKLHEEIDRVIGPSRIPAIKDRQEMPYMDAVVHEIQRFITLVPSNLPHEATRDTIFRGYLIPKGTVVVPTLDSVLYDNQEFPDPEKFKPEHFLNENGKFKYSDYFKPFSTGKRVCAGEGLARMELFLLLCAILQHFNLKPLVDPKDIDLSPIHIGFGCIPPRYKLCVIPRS

Cc1cc(-c2cncc([C@@H](O)C(F)(F)F)c2)nc2c1C(=O)N(c1cnn(CC(F)F)c1)C2(C)C [Compound 1, (R)-6-(1-(2,2-difluoroethyl)-1H-pyrazol-4-yl)-4,7,7-trimethyl-2-(5-(2,2,2-trifluoro-1-hydroxyethyl)pyridin-3-yl)-6,7-dihydro-5H-pyrrolo[3,4-b]pyridin-5-one]
% Parent Remaining @ 30 min (CYP1A2 [1]): 105% | % Parent Remaining @ 30 min (CYP2C9): 108% | % Parent Remaining @ 30 min (CYP2E1): 105% | Metabolism by recombinant CYPs (CYP3A4; in words): detected only in the incubation with CYP3A4 | % Parent Remaining @ 30 min (CYP3A4; recombinant CYP3A4, NADPH): 92% | CYP1A2 mRNA message (CYP1A2 [2]; 0.5 μM, lot 8123): 0.6 (0.6)* fold change | Phenacetin O-Dealkylation (CYP1A2 [2]; 0.5 μM, lot 8123): 0.6 (0.6)* fold change | CYP1A2 mRNA message (CYP1A2 [2]; 0.5 μM, lot LMP): 0.6 fold change | Phenacetin O-Dealkylation (CYP1A2 [2]; 0.5 μM, lot LMP): 0.7 fold change | CYP1A2 mRNA message (CYP1A2 [2]; 0.5 μM, lot YOW): 0.5 fold change | Phenacetin O-Dealkylation (CYP1A2 [2]; 0.5 μM, lot YOW): 1.1 fold change | CYP1A2 mRNA message (CYP1A2 [2]; 1.0 μM, lot 8123): 0.5 (0.5) fold change | Phenacetin O-Dealkylation (CYP1A2 [2]; 1.0 μM, lot 8123): 0.5 (0.5) fold change | CYP1A2 mRNA message (CYP1A2 [2]; 1.0 μM, lot LMP): 0.6 fold change | Phenacetin O-Dealkylation (CYP1A2 [2]; 1.0 μM, lot LMP): 0.8 fold change | CYP1A2 mRNA message (CYP1A2 [2]; 1.0 μM, lot YOW): 0.4 fold change | Phenacetin O-Dealkylation (CYP1A2 [2]; 1.0 μM, lot YOW): 1.1 fold change | CYP1A2 mRNA message (CYP1A2 [2]; 5.0 μM, lot 8123): 0.5 fold change | Phenacetin O-Dealkylation (CYP1A2 [2]; 5.0 μM, lot 8123): 0.8 fold change | CYP1A2 mRNA message (CYP1A2 [2]; 5.0 μM, lot LMP): 0.7 fold change | Phenacetin O-Dealkylation (CYP1A2 [2]; 5.0 μM, lot LMP): 0.9 fold change | CYP1A2 mRNA message (CYP1A2 [2]; 5.0 μM, lot YOW): 0.6 fold change | Phenacetin O-Dealkylation (CYP1A2 [2]; 5.0 μM, lot YOW): 1.1 fold change | CYP1A2 mRNA message (CYP1A2 [2]; 10.0 μM, lot 8123): 1.2 fold change | Phenacetin O-Dealkylation (CYP1A2 [2]; 10.0 μM, lot 8123): 0.7 fold change | CYP1A2 mRNA message (CYP1A2 [2]; 10.0 μM, lot LMP): 0.8 fold change | Phenacetin O-Dealkylation (CYP1A2 [2]; 10.0 μM, lot LMP): 1.0 fold change | CYP1A2 mRNA message (CYP1A2 [2]; 10.0 μM, lot YOW): 1.3 fold change | Phenacetin O-Dealkylation (CYP1A2 [2]; 10.0 μM, lot YOW): 1.2 fold change | CYP1A2 mRNA message (CYP1A2 [2]; 20.0 μM, lot 8123): 2.6 fold change | Phenacetin O-Dealkylation (CYP1A2 [2]; 20.0 μM, lot 8123): 1.2 fold change | CYP1A2 mRNA message (CYP1A2 [2]; 20.0 μM, lot LMP): 0.7 fold change | Phenacetin O-Dealkylation (CYP1A2 [2]; 20.0 μM, lot LMP): 1.1 fold change | CYP1A2 mRNA message (CYP1A2 [2]; 20.0 μM, lot YOW): 0.8 fold change | Phenacetin O-Dealkylation (CYP1A2 [2]; 20.0 μM, lot YOW): 1.3 fold change | Phenacetin O-Dealkylation (CYP1A2 [2]; 30.0 μM, lot 8123): 1.3 (NR^2) fold change | CYP1A2 mRNA message (CYP1A2 [2]; 30.0 μM, lot LMP): 1.4 fold change | Phenacetin O-Dealkylation (CYP1A2 [2]; 30.0 μM, lot LMP): 1.1 fold change | Phenacetin O-Dealkylation (CYP1A2 [2]; 30.0 μM, lot YOW): 1.5 (NR^2) fold change | change in CYP1A2 activity and mRNA levels, % of the positive control (CYP1A2 [2]; all three hepatocyte lots, 48 hour exposure): less than 20% | recovery at 1 h, 1 μM (P-gp (MDR1); A > B): 97% | recovery at 1 h, 1 μM (P-gp (MDR1); B > A): 87% | efflux ratio at 1 h, 1 μM (P-gp (MDR1); MDCK-MDR1, 1 μM): 35.1 | Papp A→B at 1 h, 1 μM (P-gp (MDR1); MDCK-MDR1, 1 μM, A > B): 0.98 ×10⁻⁶ cm/s | Papp B→A at 1 h, 1 μM (P-gp (MDR1); MDCK-MDR1, 1 μM, B > A): 34.3 ×10⁻⁶ cm/s | substrate of efflux transporters (human P-gp (MDR)): P-gp substrate | DN_AUCINF [3, 4]: 3100 ng·h/mL | F ([3]; Dog, 3 mg/kg nominal, spray-dried dispersion, 3 mg/kg): 77% | DN_AUCINF [3, 5]: 2500 ng·h/mL | DN_AUCINF [3, 6]: 2760 ng·h/mL | F ([3]; Mouse, 1 mg/kg nominal, 0.2% MC/1% SLS, 1 mg/kg): 81% | AUC [3, 4]: 9110 ng·h/mL | AUC(0-inf) [3, 4]: 9290 ng·h/mL | Cmax [3, 4]: 1290 ng/mL | MRT [3, 4]: 9 h | Tmax [3, 4]: 0.83 h | half-life [3, 4]: 7.3 h | AUC [3, 5]: 12300 ng·h/mL | AUC(0-inf) [3, 5]: 12500 ng·h/mL | Cmax [3, 5]: 1350 ng/mL | MRT [3, 5]: 10.5 h | Tmax [3, 5]: 1.67 h | half-life [3, 5]: 8.5 h | AUC [3, 6]: 2720 ng·h/mL | AUC(0-inf) [3, 6]: 2760 ng·h/mL | Cmax [3, 6]: 290 ng/mL | MRT [3, 6]: 5.8 h | Tmax [3, 6]: 2 h | half-life [3, 6]: 3.8 h | body weight loss (FIG. 4) (CD40 induced colitis; 5 mg/kg b.i.d. IP, *p<0.05 d3, **p<0.01 d4, vs vehicle): significantly inhibited | body weight loss (FIG. 4) (CD40 induced colitis; 10 mg/kg b.i.d. IP, ***p<0.001 d3-4, vs vehicle): significantly inhibited
